Where a SMILES comes first, the peptide text is derived from it. [ ]: non-standard residue; d: D form. The star is where a group is joined. Benzoyl(4-OPh) = O=C(c1ccc(Oc2ccccc2)cc1)*; Lys(Et2) = CCN(CC)CCCC[C@H](N)C(=O)O; d(aIle) = CC[C@H](C)[C@@H](N)C(=O)O; Gly(cPent) = N[C@H](C(=O)O)C1CCCC1; NH(propargyl) = C#CCN*

The target of data set [1] is T1, Histone deacetylase 8 (Homo sapiens, UniProt Q9BY41).
T1 sequence (Q9BY41 whole entry): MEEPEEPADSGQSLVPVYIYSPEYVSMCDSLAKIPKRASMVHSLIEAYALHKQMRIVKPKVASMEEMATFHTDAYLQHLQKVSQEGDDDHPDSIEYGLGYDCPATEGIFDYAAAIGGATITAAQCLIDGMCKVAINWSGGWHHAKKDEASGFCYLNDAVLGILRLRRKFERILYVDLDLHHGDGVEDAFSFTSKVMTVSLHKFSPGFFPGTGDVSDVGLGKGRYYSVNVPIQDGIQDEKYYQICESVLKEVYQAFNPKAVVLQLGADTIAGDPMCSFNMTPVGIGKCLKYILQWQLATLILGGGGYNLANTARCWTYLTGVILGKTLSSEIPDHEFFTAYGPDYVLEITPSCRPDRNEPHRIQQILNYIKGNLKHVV

The target in data set [2] is T1, Histone deacetylase 8. The source holds these as a separate data set.
Data set [3] deals with T1, Histone deacetylase 8. The source holds these as a separate data set.
The target in the next data set is Cathepsin S (Homo sapiens, UniProt P25774). Kind of data set: Selectivity interaction (Enzymatic assay) EUB0002529a CTSS. On the set-up: recommended concentration 1 uM.
Another data set addresses P2X purinoceptor 3 (Homo sapiens, UniProt P56373). Kind of data set: Selectivity interaction (Patch-clamp recording assay) EUB0002673aCl P2RX3. On the set-up: recommended concentration 1 uM. In general terms: Patch clamp records ionic current or voltage across a cell membrane.
The target of data set [4] is T2, Bromodomain-containing protein 9 (Homo sapiens, UniProt Q9H8M2).
T2 sequence (Q9H8M2 whole entry): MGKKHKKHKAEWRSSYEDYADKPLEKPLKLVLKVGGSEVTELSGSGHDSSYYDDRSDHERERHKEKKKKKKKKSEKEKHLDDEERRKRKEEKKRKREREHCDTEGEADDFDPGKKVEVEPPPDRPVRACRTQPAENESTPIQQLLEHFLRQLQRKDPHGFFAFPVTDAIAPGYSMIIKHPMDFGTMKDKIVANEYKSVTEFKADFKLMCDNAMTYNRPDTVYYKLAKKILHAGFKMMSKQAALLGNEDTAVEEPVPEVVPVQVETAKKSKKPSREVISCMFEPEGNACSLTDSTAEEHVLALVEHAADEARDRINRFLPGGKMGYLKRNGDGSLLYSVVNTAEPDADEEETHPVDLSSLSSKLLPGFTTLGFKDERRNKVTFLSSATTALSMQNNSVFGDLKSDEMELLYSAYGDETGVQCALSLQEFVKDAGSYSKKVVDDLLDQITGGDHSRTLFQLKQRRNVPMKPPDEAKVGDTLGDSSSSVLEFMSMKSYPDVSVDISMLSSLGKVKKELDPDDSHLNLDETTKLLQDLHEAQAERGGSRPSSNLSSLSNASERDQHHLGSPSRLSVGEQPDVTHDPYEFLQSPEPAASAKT
Kind of data set: Selectivity interaction (BROMOscan (Eurofins)) EUB0002282a BRD9. Also noted: recommended concentration 1 uM.

Data set [5] addresses T3, Histone acetyltransferase p300 (Homo sapiens, UniProt Q09472). Kind of data set: Selectivity interaction (BROMOscan (Eurofins)) EUB0002282a EP300. Also noted: recommended concentration 1 uM.
Data set [6] deals with Chromatin remodeling regulator CECR2 (Homo sapiens, UniProt Q9BXF3). Kind of data set: Selectivity interaction (BROMOscan (Eurofins)) EUB0002282a CECR2. Also noted: recommended concentration 1 uM.
The target of data set [7] is Bromodomain adjacent to zinc finger domain protein 2A (Homo sapiens, UniProt Q9UIF9). Kind of data set: Selectivity interaction (BROMOscan (Eurofins)) EUB0002282a BAZ2A. On the set-up: recommended concentration 1 uM.
Data set [8] addresses Transcription initiation factor TFIID subunit 1 (Homo sapiens, UniProt P21675). Kind of data set: Selectivity interaction (BROMOscan (Eurofins)) EUB0002282a TAF1. Also noted: recommended concentration 1 uM.
Another data set deals with CREB-binding protein (Homo sapiens, UniProt Q92793). Kind of data set: Selectivity interaction (BROMOscan (Eurofins)) EUB0002282a CREBBP. On the set-up: recommended concentration 1 uM.
Data set [9] concerns the target Bromodomain testis-specific protein (Homo sapiens, UniProt Q58F21). Kind of data set: Selectivity interaction (BROMOscan (Eurofins)) EUB0002282a BRDT. Also noted: recommended concentration 1 uM.
Data set [10] concerns the target Bromodomain adjacent to zinc finger domain protein 2B (Homo sapiens, UniProt Q9UIF8). Kind of data set: Selectivity interaction (BROMOscan (Eurofins)) EUB0002282a BAZ2B. Also noted: recommended concentration 1 uM.
A further data set concerns the target Peregrin (Homo sapiens, UniProt P55201). Kind of data set: Selectivity interaction (BROMOscan (Eurofins)) EUB0002282a BRPF1. Also noted: recommended concentration 1 uM.
The target in data set [11] is Sodium-dependent dopamine transporter (Homo sapiens) (UniProt Q01959). Kind of data set: Selectivity interaction (SafetyScreen (Eurofins)) EUB0002332a SLC6A3. The settings on record: at 10 µM. On the set-up: recommended concentration 1 uM.
The target in data set [12] is Voltage-gated inwardly rectifying potassium channel KCNH2 (Homo sapiens, UniProt Q12809). Kind of data set: Selectivity interaction (SafetyScreen (Eurofins)) EUB0002332a KCNH2. On the set-up: recommended concentration 1 uM. The settings on record: at 10 µM.
The target of data set [13] is Oxidized purine nucleoside triphosphate hydrolase (Homo sapiens) (UniProt P36639). Kind of data set: Selectivity interaction (Nudix + Nucleotide phosphohydrolase panel (enzymatic assay)) EUB0002332a NUDT1. Also noted: recommended concentration 1 uM. The settings on record: at 100 µM.
Data set [14] has as its target 5-hydroxytryptamine receptor 1B (Homo sapiens) (UniProt P28222). Kind of data set: (§1) Selectivity interaction (SafetyScreen (Eurofins)) EUB0002332a HTR1B. Also noted: recommended concentration 1 uM. Particulars: at 10 µM.
For data set [15], the target named is Sodium-dependent noradrenaline transporter (Homo sapiens) (UniProt P23975). Kind of data set: Selectivity interaction (SafetyScreen (Eurofins)) EUB0002332a SLC6A2. Particulars: at 10 µM. On the set-up: recommended concentration 1 uM.
Chain of Sodium-dependent noradrenaline transporter (Homo sapiens) (P23975 whole entry): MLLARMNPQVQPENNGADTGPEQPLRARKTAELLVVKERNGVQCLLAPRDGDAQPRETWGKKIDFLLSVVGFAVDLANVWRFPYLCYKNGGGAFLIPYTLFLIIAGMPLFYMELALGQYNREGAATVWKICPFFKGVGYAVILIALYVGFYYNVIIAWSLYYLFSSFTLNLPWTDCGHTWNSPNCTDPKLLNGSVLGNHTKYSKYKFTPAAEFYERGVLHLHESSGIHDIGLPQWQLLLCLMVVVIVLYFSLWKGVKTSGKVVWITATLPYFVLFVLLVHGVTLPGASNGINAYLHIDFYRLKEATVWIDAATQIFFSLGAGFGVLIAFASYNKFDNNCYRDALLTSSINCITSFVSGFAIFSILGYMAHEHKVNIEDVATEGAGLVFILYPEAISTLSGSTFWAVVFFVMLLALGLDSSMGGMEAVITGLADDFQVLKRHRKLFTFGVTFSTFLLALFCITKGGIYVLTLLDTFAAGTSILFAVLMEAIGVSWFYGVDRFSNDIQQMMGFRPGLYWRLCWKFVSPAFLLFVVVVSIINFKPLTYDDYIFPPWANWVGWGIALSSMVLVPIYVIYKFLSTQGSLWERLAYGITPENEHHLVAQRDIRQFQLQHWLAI
The target in data set [16] is 5-hydroxytryptamine receptor 1B (Homo sapiens) (UniProt P28222). Described as §1. On the set-up: recommended concentration 1 uM. The settings on record: at 10 µM. This is another data set of the same source.
Chain of 5-hydroxytryptamine receptor 1B (Homo sapiens) (P28222 whole entry): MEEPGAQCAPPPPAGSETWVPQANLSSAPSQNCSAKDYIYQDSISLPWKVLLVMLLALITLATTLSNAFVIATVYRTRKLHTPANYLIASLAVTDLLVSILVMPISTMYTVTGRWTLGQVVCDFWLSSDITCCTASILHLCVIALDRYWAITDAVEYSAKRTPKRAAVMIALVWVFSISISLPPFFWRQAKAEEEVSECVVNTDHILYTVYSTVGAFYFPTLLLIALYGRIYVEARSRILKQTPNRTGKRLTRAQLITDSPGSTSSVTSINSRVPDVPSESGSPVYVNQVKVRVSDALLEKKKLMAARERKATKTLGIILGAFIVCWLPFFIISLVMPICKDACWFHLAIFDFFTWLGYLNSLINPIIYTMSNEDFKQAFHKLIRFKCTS
In data set [17] the target is Muscarinic acetylcholine receptor M1 (Homo sapiens, UniProt P11229). Kind of data set: Selectivity interaction (Membrane binding assay) EUB0002488aCl CHRM1. On the set-up: recommended concentration 1 uM.
The target in data set [18] is Kappa-type opioid receptor (Homo sapiens, UniProt P41145). Kind of data set: Selectivity interaction (Panel of neurotransmitter receptors, receptors, ion channels/regulatory sites) EUB0002781aCl OPRK1. On the set-up: recommended concentration 1 uM.
Chain of Kappa-type opioid receptor (P41145 whole entry): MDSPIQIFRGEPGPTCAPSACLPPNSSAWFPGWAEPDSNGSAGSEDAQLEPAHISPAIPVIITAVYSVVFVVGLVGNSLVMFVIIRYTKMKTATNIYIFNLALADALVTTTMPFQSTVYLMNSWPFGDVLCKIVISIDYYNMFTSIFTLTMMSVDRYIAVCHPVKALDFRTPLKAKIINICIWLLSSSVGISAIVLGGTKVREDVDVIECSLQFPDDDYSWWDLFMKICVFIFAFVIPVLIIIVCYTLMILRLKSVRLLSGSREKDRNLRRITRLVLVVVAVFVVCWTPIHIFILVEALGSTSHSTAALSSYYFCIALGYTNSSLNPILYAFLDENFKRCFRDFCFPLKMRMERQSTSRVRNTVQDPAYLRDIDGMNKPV
The target of data set [19] is T4, Delta-type opioid receptor (Homo sapiens, UniProt P41143). Kind of data set: (§2) Selectivity interaction (Panel of neurotransmitter receptors, receptors, ion channels/regulatory sites) EUB0002781aCl OPRD1. On the set-up: recommended concentration 1 uM.
T4 sequence (P41143 whole entry): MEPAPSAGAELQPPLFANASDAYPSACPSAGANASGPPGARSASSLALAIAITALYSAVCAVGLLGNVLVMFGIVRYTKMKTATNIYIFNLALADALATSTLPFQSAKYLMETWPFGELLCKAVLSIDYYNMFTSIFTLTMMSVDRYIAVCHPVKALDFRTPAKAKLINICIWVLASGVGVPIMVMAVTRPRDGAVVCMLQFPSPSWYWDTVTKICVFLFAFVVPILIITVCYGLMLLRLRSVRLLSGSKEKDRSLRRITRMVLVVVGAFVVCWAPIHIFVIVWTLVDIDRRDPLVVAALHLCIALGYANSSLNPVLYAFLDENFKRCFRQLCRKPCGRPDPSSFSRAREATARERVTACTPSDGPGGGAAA
Data set [20] deals with T4, Delta-type opioid receptor. Described as §2. On the set-up: recommended concentration 1 uM. The source holds these as a separate data set.
The target in data set [21] is T5, Mu-type opioid receptor (Homo sapiens, UniProt P35372). Kind of data set: (§3) Selectivity interaction (Panel of neurotransmitter receptors, receptors, ion channels/regulatory sites) EUB0002781aCl OPRM1. Also noted: recommended concentration 1 uM.
T5 sequence (P35372 whole entry): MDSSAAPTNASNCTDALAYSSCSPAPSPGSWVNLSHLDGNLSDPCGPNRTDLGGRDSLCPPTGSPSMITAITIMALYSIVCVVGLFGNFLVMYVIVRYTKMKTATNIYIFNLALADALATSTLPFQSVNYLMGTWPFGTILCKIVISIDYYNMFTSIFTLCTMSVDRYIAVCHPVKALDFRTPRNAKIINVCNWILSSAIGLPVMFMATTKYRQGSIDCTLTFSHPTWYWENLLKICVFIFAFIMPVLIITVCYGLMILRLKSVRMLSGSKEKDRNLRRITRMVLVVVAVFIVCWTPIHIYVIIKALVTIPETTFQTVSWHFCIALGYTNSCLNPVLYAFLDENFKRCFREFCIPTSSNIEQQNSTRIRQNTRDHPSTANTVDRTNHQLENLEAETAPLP
The target in data set [22] is T5, Mu-type opioid receptor. The data set is described as §3. Also noted: recommended concentration 1 uM. This is another data set of the same source.
Data set [23] deals with Voltage-dependent L-type calcium channel subunit alpha-1S (Homo sapiens) (UniProt Q13698). Kind of data set: Selectivity interaction (Panel of neurotransmitter receptors, receptors, ion channels/regulatory sites) EUB0002781aCl CACNA1S. The settings on record: at 10 µM. On the set-up: recommended concentration 1 uM.
Data set [24] concerns the target cGMP-inhibited 3',5'-cyclic phosphodiesterase 3B (Homo sapiens, UniProt Q13370). Kind of data set: Selectivity interaction (Enzymatic assay) EUB0002598a PDE3B. On the set-up: recommended concentration 1 uM.
For data set [25], the target named is T3, Histone acetyltransferase p300. Kind of data set: (§4) Selectivity interaction (BROMOscan (DiscoverX)) EUB0002298a EP300. On the set-up: recommended concentration 1 uM.
Data set [26] has the same target. Described as §4. On the set-up: recommended concentration 1 uM. This is another data set of the same source.
For data set [27] the target is unchanged. The data set is described as §4. Also noted: recommended concentration 1 uM. This is another data set of the same source.
Data set [28] has as its target T6, Chromobox protein homolog 2 (Homo sapiens, UniProt Q14781).
T6 sequence (Q14781 whole entry): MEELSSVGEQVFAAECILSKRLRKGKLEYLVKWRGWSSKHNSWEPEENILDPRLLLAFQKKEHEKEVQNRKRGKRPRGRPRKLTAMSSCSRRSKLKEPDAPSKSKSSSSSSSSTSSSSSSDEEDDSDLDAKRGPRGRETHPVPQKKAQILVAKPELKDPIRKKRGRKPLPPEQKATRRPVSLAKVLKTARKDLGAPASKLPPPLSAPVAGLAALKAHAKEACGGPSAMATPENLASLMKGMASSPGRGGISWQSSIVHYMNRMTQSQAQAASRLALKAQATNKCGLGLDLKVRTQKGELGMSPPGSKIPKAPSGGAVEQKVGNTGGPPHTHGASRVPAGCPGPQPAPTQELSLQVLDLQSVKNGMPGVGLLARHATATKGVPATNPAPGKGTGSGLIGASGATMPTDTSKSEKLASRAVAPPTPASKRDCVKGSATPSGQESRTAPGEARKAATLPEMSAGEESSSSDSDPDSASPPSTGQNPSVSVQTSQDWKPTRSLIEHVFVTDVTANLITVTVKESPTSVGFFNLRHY
Kind of data set: (§5) Selectivity interaction (Fluorescence polarisation assay (chromodomain family)) EUB0002326a CBX2. On the set-up: recommended concentration 1 uM. A general note: Polarisation of emitted light reports the rotation of a fluorescent probe.

Data set [29] deals with T6, Chromobox protein homolog 2. The description is as §5. Also noted: recommended concentration 1 uM. The source holds these as a separate data set.
For data set [30], the target named is Chromobox protein homolog 7 (Homo sapiens, UniProt O95931). Kind of data set: Selectivity interaction (Fluorescence polarisation assay (chromodomain family)) EUB0002326a CBX7. Also noted: recommended concentration 1 uM.
Chain of Chromobox protein homolog 7 (O95931 whole entry): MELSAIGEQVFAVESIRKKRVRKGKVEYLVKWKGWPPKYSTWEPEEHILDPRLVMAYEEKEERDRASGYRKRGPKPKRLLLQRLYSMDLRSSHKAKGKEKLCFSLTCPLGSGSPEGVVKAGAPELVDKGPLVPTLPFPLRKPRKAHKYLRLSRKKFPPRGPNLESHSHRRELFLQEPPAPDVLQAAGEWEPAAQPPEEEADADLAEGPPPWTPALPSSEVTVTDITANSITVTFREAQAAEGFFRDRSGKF

T3 sequence (Q09472 whole entry): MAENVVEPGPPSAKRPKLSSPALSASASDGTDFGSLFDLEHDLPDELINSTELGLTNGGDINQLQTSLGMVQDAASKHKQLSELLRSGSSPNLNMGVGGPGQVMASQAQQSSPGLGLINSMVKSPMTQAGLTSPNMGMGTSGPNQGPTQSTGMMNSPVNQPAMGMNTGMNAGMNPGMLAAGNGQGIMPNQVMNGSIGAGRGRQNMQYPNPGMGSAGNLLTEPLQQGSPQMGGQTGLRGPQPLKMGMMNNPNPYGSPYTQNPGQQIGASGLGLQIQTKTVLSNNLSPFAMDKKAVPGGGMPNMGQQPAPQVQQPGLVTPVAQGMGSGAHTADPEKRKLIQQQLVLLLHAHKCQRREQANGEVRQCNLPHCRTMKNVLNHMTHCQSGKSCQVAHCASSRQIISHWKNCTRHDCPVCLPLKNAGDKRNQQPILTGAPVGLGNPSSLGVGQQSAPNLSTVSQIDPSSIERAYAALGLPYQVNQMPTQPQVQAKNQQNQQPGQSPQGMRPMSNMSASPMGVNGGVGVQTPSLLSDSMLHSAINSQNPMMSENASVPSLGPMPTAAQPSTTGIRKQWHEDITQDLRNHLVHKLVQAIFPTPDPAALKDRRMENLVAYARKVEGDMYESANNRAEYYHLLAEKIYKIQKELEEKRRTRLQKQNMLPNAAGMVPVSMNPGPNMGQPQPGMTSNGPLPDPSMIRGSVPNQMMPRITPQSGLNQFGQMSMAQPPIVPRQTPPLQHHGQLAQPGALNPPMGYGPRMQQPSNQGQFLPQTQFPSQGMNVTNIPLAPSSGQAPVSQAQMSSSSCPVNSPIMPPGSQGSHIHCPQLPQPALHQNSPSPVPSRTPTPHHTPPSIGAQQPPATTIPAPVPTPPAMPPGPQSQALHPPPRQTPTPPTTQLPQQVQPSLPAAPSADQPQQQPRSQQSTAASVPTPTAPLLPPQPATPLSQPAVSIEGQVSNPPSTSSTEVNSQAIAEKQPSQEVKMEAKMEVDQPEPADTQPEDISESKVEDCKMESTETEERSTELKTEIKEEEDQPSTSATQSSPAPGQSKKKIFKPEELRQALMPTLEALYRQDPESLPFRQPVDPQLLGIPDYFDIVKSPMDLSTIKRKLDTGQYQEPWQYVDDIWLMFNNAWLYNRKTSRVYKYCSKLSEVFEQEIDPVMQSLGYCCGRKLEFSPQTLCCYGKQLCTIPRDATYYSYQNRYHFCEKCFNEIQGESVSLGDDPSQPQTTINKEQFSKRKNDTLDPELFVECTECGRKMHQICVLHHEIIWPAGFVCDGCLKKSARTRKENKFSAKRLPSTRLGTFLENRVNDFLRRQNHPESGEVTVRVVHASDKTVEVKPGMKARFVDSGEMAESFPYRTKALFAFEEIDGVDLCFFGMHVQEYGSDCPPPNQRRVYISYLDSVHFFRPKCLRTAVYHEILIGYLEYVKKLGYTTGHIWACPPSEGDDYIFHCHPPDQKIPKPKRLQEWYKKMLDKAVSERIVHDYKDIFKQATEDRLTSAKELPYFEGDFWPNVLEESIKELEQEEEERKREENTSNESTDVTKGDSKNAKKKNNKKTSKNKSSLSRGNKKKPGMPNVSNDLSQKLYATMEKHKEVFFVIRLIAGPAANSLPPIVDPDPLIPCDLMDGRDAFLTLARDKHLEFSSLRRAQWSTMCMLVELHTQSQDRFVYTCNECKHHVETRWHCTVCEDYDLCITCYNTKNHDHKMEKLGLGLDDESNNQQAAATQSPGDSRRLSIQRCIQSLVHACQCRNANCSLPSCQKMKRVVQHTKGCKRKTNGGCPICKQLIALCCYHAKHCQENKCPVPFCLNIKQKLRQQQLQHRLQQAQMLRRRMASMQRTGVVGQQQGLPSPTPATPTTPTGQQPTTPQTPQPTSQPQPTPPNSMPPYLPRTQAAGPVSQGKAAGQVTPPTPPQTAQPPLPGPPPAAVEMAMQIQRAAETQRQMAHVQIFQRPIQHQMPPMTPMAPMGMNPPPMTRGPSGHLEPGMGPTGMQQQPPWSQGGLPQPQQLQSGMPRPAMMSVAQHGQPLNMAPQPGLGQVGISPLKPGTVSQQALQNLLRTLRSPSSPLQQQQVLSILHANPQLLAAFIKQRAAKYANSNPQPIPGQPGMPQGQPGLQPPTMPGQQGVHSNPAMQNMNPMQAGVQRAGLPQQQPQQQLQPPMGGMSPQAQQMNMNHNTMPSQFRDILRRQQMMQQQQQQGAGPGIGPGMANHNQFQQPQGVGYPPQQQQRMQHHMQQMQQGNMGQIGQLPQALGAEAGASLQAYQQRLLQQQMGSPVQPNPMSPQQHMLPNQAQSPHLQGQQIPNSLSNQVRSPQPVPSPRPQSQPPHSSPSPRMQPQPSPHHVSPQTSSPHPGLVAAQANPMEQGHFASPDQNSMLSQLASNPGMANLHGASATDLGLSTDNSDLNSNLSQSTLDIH

The term IC50 denotes the concentration needed to halve the response being measured. On to `CN(C)Cc1ccc(S(=O)(=O)n2ccc(/C=C/C(=O)NO)c2)cc1`, for which the IC50 against Histone deacetylase 8 [1], on Histone deacetylase 8 [2] and against Histone deacetylase 8 [3] was 877 nM in each case.

By Ki is commonly meant a measure of affinity in units of concentration, obtained from inhibition or displacement. A higher Ki goes with weaker binding. On to `Cn1nc(C(C)(C)C)cc1C(=O)NC(Cc1cccc(Cl)c1)C(=O)NCC#N` (centres undefined), for which the Ki at Cathepsin S came out at 850 nM.

On to `CCCCOc1c(OC)cc(C(=O)NCC2(N(C)C)CCOCC2)cc1OC`, for which, on P2X purinoceptor 3, 870 nM corresponded to half-maximal inhibition (IC50).

The term Kd denotes a measure of binding affinity in units of concentration. Consider `Cc1cc(-c2ccc3nc(C4CCOCC4)n(CCOC(F)(F)F)c3c2)cn(C)c1=O`, for which the Kd in data set [4] turned out to be 64 nM; in [5] it was 25 nM; in data set [6] it was 38 nM; in data set [7] it was 140 nM; in data set [8] it was 110 nM; at CREB-binding protein, 23 nM. In addition, the Kd in data set [9] stood at 25 nM; in data set [10], 190 nM; at Peregrin it was 100 nM.

Regarding `Cn1c(=O)c2c(nc(N3CCNCC3)n2Cc2nnc(-c3ccc(Cl)c(Cl)c3)o2)n(C)c1=O`, the Inhibition of control in [11] is 50%; in data set [12] it was over 50%; in data set [14] it was over 50%; in data set [15], over 50%; in [16], over 50%. Moreover, the Enzyme activity in data set [13] is under 20%.

`CN1[C@@H]2CC[C@H]1C[C@@H](OC(c1ccc(F)cc1)c1ccc(F)cc1)C2` yielded a Ki in data set [17] of 11.6 nM.

Usually inhibition stands for the change of the read-out against control, counted positive when it falls. On to `N=C(N)NC(=O)c1cnn(-c2cccc3ncccc23)c1C1CC1`, for which the Ki in [18] is 213 nM; in data set [19] it was 213 nM; in [20], 238 nM; on Mu-type opioid receptor [21] it was 60 nM; at Mu-type opioid receptor [22], 213 nM. Further, the inhibition in data set [23] came out at 62%.

In turn, `CC(C)C(=O)c1c(C(C)C)nn2ccccc12` [IBUDILAST] showed an IC50 in [24] of 2700 nM.

As to `CCCOc1ccc(CCc2nc3cc(-c4c(C)noc4C)ccc3n2CCN2CCOCC2)cc1`, the half-maximal inhibitory concentration (IC50) in [25], in data set [26] and in data set [27] was 363 nM each time.

Turning to `C#CCNC(=O)[C@H](CO)NC(=O)[C@H](CCCCN(CC)CC)NC(=O)[C@H](NC(=O)[C@@H](NC(=O)c1ccc(Oc2ccccc2)cc1)C1CCCC1)[C@@H](C)CC` ({Benzoyl(4-OPh)}-[Gly(cPent)][d(aIle)][Lys(Et2)]S-{NH(propargyl)}), the Kd was 4600 nM in data set [28], 4600 nM in data set [29] and over 16000 nM in data set [30].
